Measurements taken from patent US20190175534A1, “PHARMACEUTICAL COMPOSITIONS COMPRISING DGLA AND USE OF SAME” (DS Biopharma Limited, priority 2016, published 2019).

Columns and labels:
[1] = Phase 1 multiple-dose (28 days) plasma pharmacokinetics of free and total DGLA, incl. steady state; format: in vivo, human; conditions: for Peak Trough Fluctuation (PTF), free DGLA, mean: steady state Day 28 (0-24 hours); for Peak Trough Fluctuation (PTF), mean (Table 29, total DGLA): steady-state Day 28 (0-24 hours)
Description: Multiple dose part two of the study comprised two cohorts (Cohorts five and six) of eight subjects each, who were administered multiple doses of study drug in the fasted state for 28 days. Subjects in Cohorts five and six received DS107G at 2000 or 4000 mg, respectively, or matching placebo once daily for 28 days. Cohort six was started after Cohort five's safety data were evaluated by the SMC. No interim analysis was planned. […]
In Part two of the study (Cohorts five and six), subjects were administered study drug (500-mg DS107G capsules or matching placebo capsules) once daily in the fasted state for 28 days. Subjects in Cohort five received study drug first and, if they tolerated the 2000-mg daily dose for the first 14 days, subjects in Cohort six were started on the 4000-mg daily dose for 28 days.
PK parameter was computed after correcting the dosed DGLA concentrations with baseline DGLA concentrations.

[2] = test system: spontaneous hypertensive rats; test: Arterial pressure in spontaneous hypertensive rats after seven days of gavage, with intravenous phenylephrine challenge; format: in vivo, rat; conditions: DGLA 50 or 500 mg/kg alone; effect eliminated by aspirin
Description: An in vivo investigation of anti-hypertension efficacy following co-administration of DGLA and aspirin in spontaneous hypertensive rats was conducted. This experiment investigated the efficacy of DGLA when co-administered chronically with aspirin to reduce the hypertensive response induced acutely by phenylephrine in spontaneous hypertensive rats. Spontaneously hypertensive adult male rats (250-300 g), bred by Charles River Laboratories, were used for this assay. […] The animals were pair-housed by group (low dose+aspirin, high dose+aspirin or aspirin alone) for the duration of the oral gavage prior to surgery.
The test article was formulated using olive oil as the vehicle. This stock solution was then administered by oral gavage once per day for seven consecutive days. A low and a high dose (50 mg/kg and 500 mg/kg) were tested.
A 5 mg/ml stock solution of aspirin was prepared by dissolving the appropriate amount of aspirin in 100% DMSO which was then diluted in water. The concentration of DMSO was less than 1%. The appropriate volume was administered by oral gavage to each animal once per day for seven consecutive days. The stock solution was stored at room temperature and was considered stable for the duration of the gavage.
The appropriate volume was administered to each animal by an intravenous injection at the end of the experiment on the surgery day. The stock solution was stored at 4° C. and was considered stable for the duration of the experiment.
Male spontaneous hypertensive rats weighing approximately 300 g arrived at the facility at least two days before beginning the oral gavage. Animals were assigned to one of three groups (low dose+aspirin, high dose+aspirin, and aspirin), and were pair-housed during the acclimation period. […]
Rats were anesthetized with a 2.5-3.0% isoflurane-O2 mixture in an induction box. […] Blood pressure, systemic arterial pressure (SAP), and heart rate were monitored continuously for a total of half an hour. Hypertension was detected as an increase in diastolic, systolic or mean blood pressure. […]

[3] = Phase 1 food effect on single-dose plasma pharmacokinetics (1000 mg, fasted vs fed); format: in vivo, human
Description: The effect of food on the PK of an orally administered single dose of DS107G capsule in healthy subjects; and
Subjects were randomly assigned in a 3:1 ratio of DG107G to placebo by block randomization. Single dose part one of the study comprised three cohorts of eight subjects each, with the addition of Cohort four based on evaluation of the safety data of Cohort three by the Safety Monitoring Committee (SMC). A single oral dose of DS107G or matching placebo was administered to fasted subjects in Cohorts one to three (500, 1000, and 2000 mg, respectively) in parallel; subjects in Cohort four were administered a dose of 4000 mg following completion of Cohort three. Subjects in Cohort two received 1000 mg or matching placebo in the fed state at ≥14 days after the first dose.
Food effect was evaluated in Cohort two at least 14 days after the first dose at which time a second single dose was administered, Subjects were administered a 1000-mg dose of study drug with 240 mL of water after a 10-hour fasting period and 30 minutes after starting consumption of a meal. Subjects then refrained from food intake for at least 4 hours after dosing, Food consumption was standardized for at least 12 hours after dosing using a standardized high-fat meal (800 to 1000 kcal with 500 to 600 kcal from fat and 250 kcal from carbohydrates). A typical standard test meal consisted of two eggs fried in butter, two strips of bacon, two slices of toast with butter, 120 mL of hash brown potatoes, and 240 mL of whole milk.
Subjects in Cohort two undergoing evaluation of the food effect on oral 1000 mg DGLA capsules were restricted from food consumption for at least 4 hours after dosing. Food consumption was standardized for at least 12 hours post dose using a standardized high-fat meal.

[4] = Phase 1 multiple-dose skin blister fluid concentrations of free and total DGLA; format: in vivo, human
Source text: The PK of DGLA in human skin following multiple doses of DS107G capsule given once daily for 28 days to healthy subjects.

[5] = first value printed for the two dose cohorts (2000 mg assumed)
[6] = second value printed for the two dose cohorts (4000 mg assumed)

Structure (SMILES): CCCCC/C=C\C/C=C\C/C=C\CCCCCCC(=O)O [DGLA, Dihomo gamma linolenic acid]
- Mean accumulation ratio (AR) for AUC, free DGLA ([1]; 2000 mg daily): ~3.3
- Mean accumulation ratio (AR) for Cmax, free DGLA ([1]; 2000 mg daily): ~2.8
- Mean accumulation ratio (AR) for AUC, free DGLA ([1]; 4000 mg daily): ~1.6
- Mean accumulation ratio (AR) for Cmax, free DGLA ([1]; 4000 mg daily): ~1.4
- Time at which plasma concentrations reach steady-state (free and total DGLA) ([1]; 2000 and 4000 mg daily): ~14 days
- Mean baseline-corrected free DGLA AUC0-24, 4000 mg over 2000 mg dose ([1]; Day 1): ~2.5 fold
- Mean baseline-corrected free DGLA Cmax, 4000 mg over 2000 mg dose ([1]; Day 1): ~3 fold
- Mean baseline-corrected total DGLA AUC0-24, 4000 mg over 2000 mg dose ([1]; Day 1): ~1.5 fold
- Mean baseline-corrected total DGLA Cmax, 4000 mg over 2000 mg dose ([1]; Day 1): ~1.5 fold
- Mean baseline-corrected free DGLA AUC0-24, 4000 mg over 2000 mg dose ([1]; Day 28): ~1.7 fold
- Mean baseline-corrected free DGLA Cmax, 4000 mg over 2000 mg dose ([1]; Day 28): ~1.4 fold
- Mean baseline-corrected total DGLA AUC0-24, 4000 mg over 2000 mg dose ([1]; Day 28): ~1.4 fold
- Mean baseline-corrected total DGLA Cmax, 4000 mg over 2000 mg dose ([1]; Day 28): ~1.2 fold
- Time of peak mean concentration of free DGLA after dosing ([1]; Days 1 and 28, 2000 and 4000 mg daily): about 4 hours
- Increase of average concentration at steady state, free DGLA, dose doubled from 2000 to 4000 mg daily ([1]; in vivo): 1.6 fold
- Increase of average concentration at steady state, total DGLA, dose doubled from 2000 to 4000 mg daily ([1]; in vivo): 1.2 fold
- Peak Trough Fluctuation (PTF), free DGLA, mean [1, 5]: ~430%
- Peak Trough Fluctuation (PTF), free DGLA, mean [1, 6]: ~490%
- Peak Trough Fluctuation (PTF), mean (Table 29, total DGLA) [1, 5]: 62.5%
- Peak Trough Fluctuation (PTF), mean (Table 29, total DGLA) [1, 6]: 44.9%
- Effect on arterial pressure in spontaneously hypertensive rats [2]: successfully decreases the arterial pressure
- Free DGLA Cmax occurred sooner under fasted than fed conditions (median) ([3]; single 1000 mg dose): 1 h
- Mean baseline-corrected free DGLA Cmax, fasted over fed ([3]; single 1000 mg dose): about 3 fold
- Mean baseline-corrected total DGLA AUC0-24, fasted over fed ([3]; single 1000 mg dose): about 1,8 fold
- Mean baseline-corrected total DGLA Cmax, fasted over fed ([3]; single 1000 mg dose): about 1.5 fold
- Mean free DGLA baseline-corrected AUC0-24, fasted over fed ([3]; single 1000 mg dose): about 2 fold
- Mean baseline-corrected AUC0-24, total DGLA over free DGLA ([3]; single 1000 mg dose, fasted): ~54 fold
- Mean baseline-corrected Cmax, total DGLA over free DGLA ([3]; single 1000 mg dose, fasted): ~10 fold
- Mean baseline-corrected AUC0-24, total DGLA over free DGLA ([3]; single 1000 mg dose, fed): ~56 fold
- Mean baseline-corrected Cmax, total DGLA over free DGLA ([3]; single 1000 mg dose, fed): ~20 fold
- Rate and extent of total DGLA absorption (mean Cmax and AUC0-24), fasted higher than fed ([3]; single 1000-mg dose): approximately 50%
- Mean total DGLA concentration in skin blister fluid, Day 28 over Day 1 ([4]; 2000 mg daily): about 2.5 fold
- Mean total DGLA concentration in skin blister fluid, Day 28 over Day 1 ([4]; 4000 mg daily): ~3 fold
- Increase of mean total DGLA concentrations in skin blister fluid with a doubling in dose ([4]; Days 1, 8, 14 and 28): about 1.4 fold
- Mean free DGLA concentrations in skin blister fluid with a doubling in dose ([4]; Days 1, 8, 14 and 28, 2000 vs 4000 mg daily): approximately doubled
- Mean free DGLA concentration in skin blister fluid, Day 28 over Day 1 ([4]; both 2000 and 4000 mg daily): about 3 fold
- Mean concentrations of free DGLA in plasma versus skin blister fluid ([4]; same dose, Day 8 and Day 14 (but not Day 28)): somewhat similar
- Mean concentrations of total DGLA in plasma versus skin blister fluid ([4]; same dose, after Day 1): much higher in plasma than in skin blister fluid
